Reference: US20230115476A1, “DIETARY BUTYRATE AND ITS USES” (SOCIETE DES PRODUITS NESTLE S.A., priority 2019, published 2023)

What was measured:
[1] = tested on: porcine pancreatic lipase (PPL); experiment: In vitro lipolysis in simulated intestinal fluid (SIF), pH-stat; format: in vitro ADME
Procedure: (§1) 10 wt% oil in water emulsions stabilised by 0.3 wt% polyoxyethylene sorbitan mono-oleate (Tween® 80) were prepared by mixing the Tween 80 into the oil phase at 40° C., then mixing with the water phase using a magnetic stirrer. An emulsion was then created using a Hielscher UP 400S ultrasonic probe homogeniser equipped with a 5 mm diameter rod-like probe by applying 100% amplitude at 100% cycle for 2 minutes whilst the sample was cooled using ice water.
The lipid emulsion (2 mL) containing 200 mg of fat was subjected to gastrointestinal in vitro lipolysis. […]
The intestinal digestion step was performed in the pH stat where the pH was kept constant at 6.8 by addition of NaOH (0.05 M). […] During the intestinal phase of digestion, the kinetics of digestion were followed using a pH-stat (TIM856, Radiometer) technique and expressed as titratable acid (rather than fatty acid) that was calculated by the equation: […]
(§2) Since the digestion of dietary lipids involves lipases of both gastric and intestinal origin, lipid digestibility was assessed using two digestion models i) simulated intestinal fluid (SIF) with porcine pancreatic lipase (PPL) and ii) sequential digestion in simulated gastric fluid (SGF) with rabbit gastric lipase (RGL) followed by simulated intestinal fluid (SIF) with porcine pancreatic lipase (PPL).

[2] = tested on: rabbit gastric lipase (RGL) followed by porcine pancreatic lipase (PPL); experiment: Sequential in vitro digestion, simulated gastric fluid (SGF) then SIF, pH-stat; format: in vitro ADME
Procedure: as §1
The lipid emulsion (2 mL) containing 200 mg of fat was subjected to gastrointestinal in vitro lipolysis. […] For gastric digestion, the sample was incubated for 90 minutes with 8.5 mL of simulated gastric fluid (SGF), which consisted of 150 mM NaCl, 450 U/mL pepsin, 18 U/mL rabbit gastric lipase at 37° C. and a pH of 5.5.
The intestinal digestion step was performed in the pH stat where the pH was kept constant at 6.8 by addition of NaOH (0.05 M). […] The intestinal digestion step starts when the temperature reaches 37 ± 0.5° C. The pH was adjusted to pH 6.8 and after incubation of two minutes at this pH and temperature, a pancreatin solution (5 mM tris, 150 mM NaCl at pH 6.8) was added. The final composition of the intestinal fluid was 10 mM CaCl2, 12 mM mixed bile salts, 0.75 mM phospholipid, 150 mM NaCl and 4 mM tris(hydroxymethyl)aminomethane buffer. The intestinal digestion step was carried out for 3 hours in a titration manager from Radiometer. During the intestinal phase of digestion, the kinetics of digestion were followed using a pH-stat (TIM856, Radiometer) technique and expressed as titratable acid (rather than fatty acid) that was calculated by the equation: […]
as §2

[3] = tested on: Enterobacteriaceae, Salmonella; conditions: following oral streptomycin administration; Byndloss 2017, Rivera-Chavez 2016; cited from earlier work
colon epithelial cells = conditions: Gillis et al. 2018; cited from earlier work

- Initial rate of lipolysis ([1]; SIF alone, emulsion with 200 mg fat, pH 6.8, 37° C.): 223 ± 59 µmol/min
- Extent of digestion ([1]; back titration to pH 11.5, overall extent after SIF and SGF-SIF (FIG. 2)): 101.5 ± 0.9%
- Initial lipolysis rate in SIF ([2]; SGF-SIF sequential digestion, 90 min SGF pH 5.5 first): 44.1 ± 8.8 µmol/min
- Lipolysis by gastric lipase ([2]; indicated by decreased total fatty acid release in SIF after RGL in SGF): ~ 60%
- Hydrolysis in the stomach (gastric lipolysis) ([2]; overall conclusion in words): extensive hydrolysis in the stomach
SMILES: CCCC(=O)OCC(COC(=O)CCC)OC(=O)CCC [tributyrin]
- Effect on pathogen expansion [3]: restrict pathogen expansion
- Effect on antibiotic-induced lactate production (colon epithelial cells): reduce antibiotic-induced lactate production
